# PubChem BioAssay (NCI)
#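 Where inhibition never reached the appropriate level, the endpoint shown equals the highest concentration tested. Otherwise, values were interpolated linearly from a five-concentration, 48-hour dose response in 96-well plates. Abbreviation: GI50, concentration required for 50% inhibition of growth. The concentration for full growth arrest is given as TGI.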
# Legend:
# Assay in all cases: NCI tumour cell line growth inhibition, 48 h
# [1] = test system: UACC-62 melanoma
# [2] = test system: TK-10 renal
# [3] = test system: IGROV1 ovarian
# [4] = test system: T-47D breast
# [5] = test system: UO-31 renal
# [6] = test system: LOX IMVI melanoma
# [7] = test system: SK-MEL-28 melanoma
# [8] = test system: RPMI-8226 leukemia
# [9] = test system: HL-60(TB) leukemia
# [10] = test system: OVCAR-3 ovarian
# [11] = test system: HCC-2998 colon
# [12] = test system: CCRF-CEM leukemia
# [13] = test system: M14 melanoma
# [14] = test system: MDA-MB-435
# [15] = test system: CAKI-1 renal
# [16] = test system: U251 CNS
# [17] = test system: A498 renal
# [18] = test system: HOP-92 NSCLC
# [19] = test system: NCI-H23 lung
# [20] = test system: SF-295 CNS
# [21] = test system: RXF 393 renal
# [22] = test system: SK-OV-3 ovarian
# [23] = test system: HT29 colon
# [24] = test system: MDA-MB-468 breast
# [25] = test system: HCT-15 colon
# [26] = test system: NCI-H522 lung
# [27] = test system: NCI-H460 lung
# [28] = test system: MDA-MB-231 breast
# [29] = test system: MCF7 breast
# [30] = test system: OVCAR-4 ovarian
# [31] = test system: HOP-62 NSCLC
# [32] = test system: SK-MEL-2 melanoma
# [33] = test system: SR leukemia
# [34] = test system: UACC-257 melanoma
# [35] = test system: EKVX NSCLC
# [36] = test system: HS 578T breast
# [37] = test system: OVCAR-5 ovarian
# [38] = test system: OVCAR-8 ovarian
# [39] = test system: SF-539 CNS
# [40] = test system: MOLT-4 leukemia
# [41] = test system: SW-620 colon
# [42] = test system: SNB-19 CNS
# [43] = test system: NCI/ADR-RES ovarian
# [44] = test system: BT-549 breast
# [45] = test system: ACHN renal
# [46] = test system: A549 NSCLC
# [47] = test system: NCI-H226 lung
# [48] = test system: DU-145 prostate
# [49] = test system: MALME-3M melanoma
# [50] = test system: COLO 205 colon
# [51] = test system: SK-MEL-5 melanoma
# [52] = test system: 786-0 renal
# [53] = test system: KM12 colon
# [54] = test system: SF-268 CNS
# [55] = test system: PC-3 prostate
# [56] = test system: K-562 leukemia
# [57] = test system: SN12C renal
# [58] = test system: HCT-116 colon
smiles,measurement,setting,value
C/C(=N\Nc1ccc(S(N)(=O)=O)cc1)c1ccc(N=Nc2c(Nc3ccccc3)[nH][nH]c2=O)cc1,GI50,[1],1.96 µM
same,TGI,[1],4.34 µM
same,GI50,[2],18.6 µM
same,TGI,[2],56.8 µM
same,GI50,[3],4.5 µM
same,TGI,[3],17.6 µM
same,GI50,[4],2.22 µM
same,TGI,[4],5.92 µM
same,GI50,[5],19.4 µM
same,TGI,[5],> 100 µM
same,GI50,[6],2.13 µM
same,TGI,[6],4.33 µM
same,GI50,[7],1.91 µM
same,TGI,[7],3.65 µM
same,GI50,[8],3.36 µM
same,TGI,[8],28.2 µM
same,GI50,[9],2.86 µM
same,TGI,[9],17.1 µM
same,GI50,[10],1.87 µM
same,TGI,[10],4.54 µM
same,GI50,[11],2.29 µM
same,TGI,[11],6.08 µM
same,GI50,[12],2.63 µM
same,TGI,[12],8.92 µM
same,GI50,[13],2.83 µM
same,TGI,[13],7.55 µM
same,GI50,[14],2.07 µM
same,TGI,[14],5.03 µM
same,GI50,[15],12.5 µM
same,TGI,[15],25.1 µM
same,GI50,[16],1.88 µM
same,TGI,[16],3.76 µM
same,GI50,[17],11.4 µM
same,TGI,[17],32.8 µM
same,GI50,[18],1.3 µM
same,TGI,[18],6.55 µM
same,GI50,[19],2.54 µM
same,TGI,[19],6.53 µM
same,GI50,[20],3.67 µM
same,TGI,[20],13.6 µM
same,GI50,[21],1.1 µM
same,TGI,[21],3.88 µM
same,GI50,[22],2.34 µM
same,TGI,[22],6.47 µM
same,GI50,[23],3.58 µM
same,TGI,[23],11.6 µM
same,GI50,[24],1.4 µM
same,TGI,[24],3 µM
same,GI50,[25],5.29 µM
same,TGI,[25],18.4 µM
same,GI50,[26],2.17 µM
same,TGI,[26],5.25 µM
same,GI50,[27],3.21 µM
same,TGI,[27],11.1 µM
same,GI50,[28],2 µM
same,TGI,[28],4.07 µM
same,GI50,[29],2.4 µM
same,TGI,[29],7.34 µM
same,GI50,[30],2.84 µM
same,TGI,[30],9.26 µM
same,GI50,[31],2.05 µM
same,TGI,[31],6 µM
same,GI50,[32],2.11 µM
same,TGI,[32],4.38 µM
same,GI50,[33],1.74 µM
same,TGI,[33],5.33 µM
same,GI50,[34],3.97 µM
same,TGI,[34],16.7 µM
same,GI50,[35],5.39 µM
same,TGI,[35],26.9 µM
same,GI50,[36],3.31 µM
same,TGI,[36],19.4 µM
same,GI50,[37],11 µM
same,TGI,[37],24.4 µM
same,GI50,[38],2.59 µM
same,TGI,[38],7.81 µM
same,GI50,[39],1.58 µM
same,TGI,[39],3.68 µM
same,GI50,[40],1.64 µM
same,TGI,[40],5.24 µM
same,GI50,[41],3.18 µM
same,TGI,[41],12.6 µM
same,GI50,[42],2.59 µM
same,TGI,[42],8.76 µM
same,GI50,[43],> 100 µM
same,TGI,[43],> 100 µM
same,GI50,[44],2.83 µM
same,TGI,[44],9.66 µM
same,GI50,[45],5.9 µM
same,TGI,[45],18.5 µM
same,GI50,[46],19.4 µM
same,TGI,[46],> 100 µM
same,GI50,[47],3.31 µM
same,TGI,[47],12.3 µM
same,GI50,[48],3.21 µM
same,TGI,[48],10.4 µM
same,GI50,[49],1.98 µM
same,TGI,[49],3.85 µM
same,GI50,[50],3.28 µM
same,TGI,[50],12 µM
same,GI50,[51],3.32 µM
same,TGI,[51],12.8 µM
same,GI50,[52],2.14 µM
same,TGI,[52],6.27 µM
same,GI50,[53],2.66 µM
same,TGI,[53],8.95 µM
same,GI50,[54],2.22 µM
same,TGI,[54],6.23 µM
same,GI50,[55],3.06 µM
same,TGI,[55],11.3 µM
same,GI50,[56],2.29 µM
same,TGI,[56],6.37 µM
same,GI50,[57],2.38 µM
same,TGI,[57],6.58 µM
same,GI50,[58],3.04 µM
same,TGI,[58],10.3 µM
